Measured values: the supplement of paper PMC10307832

Columns and labels:
Experiment in all cases: relative viability (nuclei count vs DMSO), 5 days (fraction); higher = more cells survive
Avagacestat = compound: NC(=O)[C@@H](CCC(F)(F)F)N(Cc1ccc(-c2ncon2)cc1F)S(=O)(=O)c1ccc(Cl)cc1 [Avagacestat]
In short: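 Viability is treated-well nuclei as a fraction of vehicle-well nuclei, reported as the median across plates. Before counting, lung cancer cell lines were kept overnight at 37 °C in 1536-well plates, pinned with five √10-spaced library-drug doses on vehicle-anchored plates, and left 5 days without medium change, then fixed, permeabilised and Hoechst-stained in one step, imaged at 4× and counted by MetaXpress. A plate passed only if control CV was below 25% and at least one doubling occurred.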

[1] = compound: NC(=O)[C@@H](CCC(F)(F)F)N(Cc1ccc(-c2ncon2)cc1F)S(=O)(=O)c1ccc(Cl)cc1 [Avagacestat] + CC(=O)c1c(C)c2cnc(Nc3ccc(N4CCNCC4)cn3)nc2n(C2CCCC2)c1=O [Palbociclib] (partner 0.5 µM)
In short: (§1)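 Lung cancer cell lines, seeded in 1536-well plates, were treated the following day by pin tool with a single drug or with five library-drug doses (not always all listed) in √10 steps on top of a fixed anchor-drug dose. Cells were fixed and nuclei stained in one step after 5 days, and nuclei were counted. Relative viability is the nuclei count for treated wells divided by that for vehicle wells, reported as medians of duplicate plates.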

Avagacestat + OSI-027 = compound: NC(=O)[C@@H](CCC(F)(F)F)N(Cc1ccc(-c2ncon2)cc1F)S(=O)(=O)c1ccc(Cl)cc1 [Avagacestat] + COc1cccc2cc(-c3nc([C@H]4CC[C@H](C(=O)O)CC4)n4ncnc(N)c34)[nH]c12 [OSI-027] (partner 0.5 µM)
In short: as §1

Avagacestat + Foretinib = compound: NC(=O)[C@@H](CCC(F)(F)F)N(Cc1ccc(-c2ncon2)cc1F)S(=O)(=O)c1ccc(Cl)cc1 [Avagacestat] + COc1cc2c(Oc3ccc(NC(=O)C4(C(=O)Nc5ccc(F)cc5)CC4)cc3F)ccnc2cc1OCCCN1CCOCC1 [Foretinib] (partner 0.25 µM)
In short: as §1

Row | Cell Line | relative viability (Avagacestat; 0.08 µM) | relative viability (Avagacestat; 0.253 µM) | relative viability (Avagacestat; 0.8 µM) | relative viability (Avagacestat; 2.53 µM) | relative viability (Avagacestat; 8 µM) | relative viability ([1]; first compound 0.08 µM) | relative viability ([1]; first compound 0.253 µM) | relative viability ([1]; first compound 0.8 µM) | relative viability ([1]; first compound 2.53 µM) | relative viability ([1]; first compound 8 µM) | relative viability (Avagacestat + OSI-027; first compound 0.08 µM) | relative viability (Avagacestat + OSI-027; first compound 0.253 µM) | relative viability (Avagacestat + OSI-027; first compound 0.8 µM) | relative viability (Avagacestat + OSI-027; first compound 2.53 µM) | relative viability (Avagacestat + OSI-027; first compound 8 µM) | relative viability (Avagacestat + Foretinib; first compound 0.08 µM) | relative viability (Avagacestat + Foretinib; first compound 0.253 µM) | relative viability (Avagacestat + Foretinib; first compound 0.8 µM) | relative viability (Avagacestat + Foretinib; first compound 2.53 µM) | relative viability (Avagacestat + Foretinib; first compound 8 µM)
1 | NCI-H322M | 0.916 | 0.833 | 0.97 | 0.74 | 0.846 | 0.456 | 0.442 | 0.455 | 0.419 | 0.531 | 0.519 | 0.562 | 0.571 | 0.501 | 0.488 | 0.969 | 0.935 | 1.04 | 0.728 | 0.774
2 | NCI-H358 | 1.02 | 1 | 1.03 | 0.835 | 0.835 | 0.148 | 0.137 | 0.126 | 0.143 | 0.132 | 0.895 | 0.79 | 0.768 | 0.682 | 0.738 | 0.7 | 0.866 | 0.737 | 0.598 | 0.665
3 | NCI-H441 | 1.32 | 1.61 | 1.09 | 1.24 | 0.794 | 0.242 | 0.214 | 0.249 | 0.229 | 0.218 | 0.859 | 0.72 | 0.704 | 0.589 | 0.462 | 0.975 | 1.29 | 1.04 | 1.14 | 0.956
4 | NCI-H460 | 1.09 | 1.31 | 1.03 | 0.942 | 0.951 | 0.128 | 0.104 | 0.14 | 0.146 | 0.131 | 0.953 | 1.19 | 0.752 | 0.551 | 0.418 | 1.02 | 1.4 | 1.05 | 0.827 | 0.885
5 | NCI-H520 | 1.04 | 1.08 | 1 | 0.918 | 0.825 | 0.21 | 0.23 | 0.198 | 0.194 | 0.201 | 0.241 | 0.316 | 0.22 | 0.249 | 0.215 | 0.755 | 0.753 | 0.731 | 0.657 | 0.629
6 | NCI-H647 | 0.992 | 1.07 | 1.13 | 0.922 | 0.899 | 0.456 | 0.497 | 0.486 | 0.341 | 0.35 | 0.552 | 0.773 | 0.575 | 0.559 | 0.572 | 1.38 | 1.41 | 1.27 | 1.21 | 1.11
7 | NCI-H650 | 1.02 | 0.966 | 1.05 | 1.16 | 0.872 | 0.313 | 0.361 | 0.314 | 0.275 | 0.308 | 0.638 | 0.472 | 0.576 | 0.573 | 0.445 | 1.05 | 1.08 | 1.11 | 1.08 | 1.11
